These results are taken from patent US8188059B2, “Compounds and methods for modulating expression of GCGR” (Isis Pharmaceuticals, Inc., priority 2006, dated 2012).

Strand notation (5' to 3'): a small letter for the sugar, then the base; units joined by * are phosphorothioate-linked, units joined directly phosphodiester-linked; [ ] holds rarer units or linkages, { } end groups; capitals alone tell only the bases. e = 2'-O-(2-methoxyethyl) (MOE); [5mC] = 5-methylcytosine; d = 2'-deoxy (DNA)

In data set [1] the test system is PTP1B mRNA. In words: Dose response for human PTP1B in HuVEC cells, Primer Probe Set 3000 (Example 25, Table 87). The class given is cell-based. Here is the method: (§1) Human vascular endothelial (HuVEC) cells were plated at a density of 5000 cells per well and treated as described herein with nM concentrations of short antisense compound as indicated in Table 86. After the treatment period, RNA was isolated from the cells and PTP1B mRNA levels were measured by quantitative real-time PCR, as described herein. PTP1B mRNA levels were adjusted according to total RNA content as measured by RIBOGREEN®. Two different human PTP1B primer probe sets were used to measure mRNA levels. Results with Primer Probe Set (PPS) 198 are shown in Table 86, and results with Primer Probe Set (PPS) 3000 are shown in Table 87. Results are presented as percent inhibition of PTP1B mRNA expression relative to untreated control cells.

For data set [2], the system named is PTP1B mRNA. In words: Dose response for human PTP1B in HuVEC cells, Primer Probe Set 198 (Example 25, Table 86). The class given is cell-based. On the procedure: as §1
The next data set concerns PCSK9 mRNA. The class given is cell-based, human. The note with it: Hep3B cells, 100 nM, relative to untreated control cells; for % Inhib (PCSK9 mRNA): 0 = no reduction observed. Here is the method: When cells reached appropriate confluency, they were treated with oligonucleotide using LIPOFECTIN® as described. […] Cells were treated and data were obtained in duplicate or triplicate. […] Cells were harvested 16-24 hours after oligonucleotide treatment.
Short antisense compounds targeted to a PCSK9 nucleic acid were tested for their effects on PCSK9 mRNA in vitro. The Isis No, gapmer motif and SEQ ID NO of each short antisense compound are shown again in Table 75. Cultured Hep3B cells were treated with 100 nM of short antisense compound. 5-10-5 MOE gapmers targeted to a PCSK9 nucleic acid were used as positive controls. After the treatment period, RNA was isolated from the cells and PCSK9 mRNA levels were measured by quantitative real-time PCR, as described herein. PCSK9 mRNA levels were adjusted according to total RNA content as measured by RIBOGREEN®. Results are presented in Table 75 as percent inhibition of PCSK9 (% Inhib), relative to untreated control cells.

Turning to “398105 (antisense eT*eG*d[5mC]*dA*d[5mC]*dA*dG*dG*d[5mC]*dA*dG*dG*eT*eT) [compound 398105]”, the “% Inhibition of PTP1B mRNA” value in the data set on PTP1B mRNA [1] (PPS 3000, 1.11 nM) worked out at 0%; in the data set on PTP1B mRNA [1] (PPS 3000, 3.33 nM), 35%; in the data set with PTP1B mRNA [1] (PPS 3000, 10.0 nM), 79%; in the data set with PTP1B mRNA [1] (PPS 3000, 30.0 nM) it was 93%; with PTP1B mRNA [2] (PPS 198, 1.11 nM), 0%; in the data set with PTP1B mRNA [2] (PPS 198, 3.33 nM), 25%. Besides, the “% Inhibition of PTP1B mRNA” value with PTP1B mRNA [2] (PPS 198, 10.0 nM) is given as 79%; in the data set with PTP1B mRNA [2] (PPS 198, 30.0 nM), 90%.
As to “398112 (antisense e[5mC]*eA*dG*d[5mC]*d[5mC]*dT*dG*dG*d[5mC]*dA*d[5mC]*d[5mC]*eT*eA) [compound 398112]”, the “% Inhibition of PTP1B mRNA” value in the data set on PTP1B mRNA [1] (PPS 3000, 1.11 nM) was found to be 0%; in the data set on PTP1B mRNA [1] (PPS 3000, 3.33 nM), 26%; with PTP1B mRNA [1] (PPS 3000, 10.0 nM) it was 77%; with PTP1B mRNA [1] (PPS 3000, 30.0 nM), 94%; with PTP1B mRNA [2] (PPS 198, 1.11 nM) it was 1%; with PTP1B mRNA [2] (PPS 198, 3.33 nM) it was 10%. In addition, the “% Inhibition of PTP1B mRNA” value amounted to 73% in the data set on PTP1B mRNA [2] (PPS 198, 10.0 nM) and 93% with PTP1B mRNA [2] (PPS 198, 30.0 nM).
Regarding “398120 (antisense eG*eT*dT*d[5mC]*dA*dA*dG*d[5mC]*dG*dG*d[5mC]*d[5mC]*eT*eA) [compound 398120]”, the “% Inhibition of PTP1B mRNA” value with PTP1B mRNA [1] (PPS 3000, 1.11 nM) came out at 0%; in the data set on PTP1B mRNA [1] (PPS 3000, 3.33 nM) it was 35%; in the data set with PTP1B mRNA [1] (PPS 3000, 10.0 nM), 79%; in the data set with PTP1B mRNA [1] (PPS 3000, 30.0 nM), 93%; in the data set on PTP1B mRNA [2] (PPS 198, 1.11 nM), 0%; in the data set on PTP1B mRNA [2] (PPS 198, 3.33 nM), 31%. For the same substance, the “% Inhibition of PTP1B mRNA” value with PTP1B mRNA [2] (PPS 198, 10.0 nM) worked out at 80%; in the data set on PTP1B mRNA [2] (PPS 198, 30.0 nM), 96%.
On to “398173 (antisense e[5mC]*dA*dG*d[5mC]*d[5mC]*dT*dG*dG*dG*d[5mC]*dA*e[5mC]) [compound 398173]”, for which the “% Inhibition of PTP1B mRNA” value came out at 0% in the data set on PTP1B mRNA [1] (PPS 3000, 1.11 nM); 18% in the data set on PTP1B mRNA [1] (PPS 3000, 3.33 nM); 80% in the data set with PTP1B mRNA [1] (PPS 3000, 10.0 nM); 90% with PTP1B mRNA [1] (PPS 3000, 30.0 nM); 0% in the data set with PTP1B mRNA [2] (PPS 198, 1.11 nM); 4% in the data set with PTP1B mRNA [2] (PPS 198, 3.33 nM). For the same substance, the “% Inhibition of PTP1B mRNA” value in the data set on PTP1B mRNA [2] (PPS 198, 10.0 nM) is 80%; in the data set on PTP1B mRNA [2] (PPS 198, 30.0 nM), 97%.
For “400349 (antisense e[5mC]*eT*dG*dG*dA*dG*d[5mC]*dA*dG*d[5mC]*dT*d[5mC]*eA*eG) [compound 400349]”, in the data set with PCSK9 mRNA, the “% Inhibition Range (PCSK9 mRNA)” value is on record as 10-20% and the “% Inhib (PCSK9 mRNA)” value came out at 13%.
Turning to “400350 (antisense e[5mC]*e[5mC]*d[5mC]*dT*d[5mC]*dA*d[5mC]*d[5mC]*d[5mC]*d[5mC]*d[5mC]*dA*eA*eA) [compound 400350]”, in the data set with PCSK9 mRNA, the “% Inhibition Range (PCSK9 mRNA)” value was 10-20% and the “% Inhib (PCSK9 mRNA)” value amounted to 15%.
In the case of “400351 (antisense eA*e[5mC]*d[5mC]*d[5mC]*dT*d[5mC]*dA*d[5mC]*d[5mC]*d[5mC]*d[5mC]*d[5mC]*eA*eA) [compound 400351]”, in the data set on PCSK9 mRNA, the “% Inhibition Range (PCSK9 mRNA)” value is on record as 10-20% and the “% Inhib (PCSK9 mRNA)” value amounted to 14%.
Consider “400354 (antisense eG*eA*d[5mC]*dA*d[5mC]*d[5mC]*d[5mC]*dT*d[5mC]*dA*d[5mC]*d[5mC]*e[5mC]*e[5mC]) [compound 400354]”, for which, in the data set with PCSK9 mRNA, the “% Inhibition Range (PCSK9 mRNA)” value is 10-20% and the “% Inhib (PCSK9 mRNA)” value is recorded as 19%.
For the substance “400355 (antisense eA*eG*dA*d[5mC]*dA*d[5mC]*d[5mC]*d[5mC]*dT*d[5mC]*dA*d[5mC]*e[5mC]*e[5mC]) [compound 400355]”, in the data set with PCSK9 mRNA, the “% Inhib (PCSK9 mRNA)” value came out at 0%.
Take “400356 (antisense eT*eA*dG*dA*d[5mC]*dA*d[5mC]*d[5mC]*d[5mC]*dT*d[5mC]*dA*e[5mC]*e[5mC]) [compound 400356]”: the “% Inhib (PCSK9 mRNA)” value with PCSK9 mRNA is recorded as 0%.
Same read-out and setting: the figure for “400357 (antisense eT*eG*dG*d[5mC]*dA*dG*d[5mC]*dA*dG*dG*dA*dA*eG*e[5mC]) [compound 400357]” is 0%.
As for “400358 (antisense eA*eT*dG*dG*d[5mC]*dA*dG*d[5mC]*dA*dG*dG*dA*eA*eG) [compound 400358]”, in the data set on PCSK9 mRNA, the “% Inhibition Range (PCSK9 mRNA)” value is 10-20% and the “% Inhib (PCSK9 mRNA)” value came out at 12%.
As to “400359 (antisense e[5mC]*eA*dT*dG*dG*d[5mC]*dA*dG*d[5mC]*dA*dG*dG*eA*eA) [compound 400359]”, the “% Inhib (PCSK9 mRNA)” value with PCSK9 mRNA is given as 0%.
